Read-outs that look alike come from different tables or passages of the source.
What was measured:
[1] = system: estrogen receptor preparations from rat uteri; test: Competitive 3H-estradiol binding, rat uterus cytosol estrogen receptor; details: 3H-estradiol as ligand
Description: (§1) In this case, it is assumed that ERβ predominates in the rat prostates over ERα, and ERα predominates in rat uteri over ERβ.

[2] = system: estrogen receptor preparations from rat prostates; test: Competitive 3H-estradiol binding, rat prostate cytosol estrogen receptor; details: for Rat prost. ER(RBA): 3H-estradiol as ligand; for prost. ER/uterus ER: ratio of RBA rat prostate ER to rat uterus ER
Description: as §1

[3] = system: hERβ; details: cited from earlier work
[4] = system: adult female rats; test: Dissociation of action of the uterus and pituitary gland (uterus growth and ovulation); type: in vivo, rat; details: s.c., four times on four consecutive days
Description: The studies with respect to the action on uterus growth and ovulation (indirect effect by influencing the secretion of pituitary gland hormones) are performed on adult female rats (body weight of 220-250 g). The substances are subcutaneously administered four times on four consecutive days. The first administration is carried out in the metestrus. One day after the last administration, the autopsy is carried out. The number of oocytes in the Fallopian tube (effect on the ovulation) as well as the uterus weight are determined.

[5] = system: hERβ; test: Relative binding affinity to hERβ (Kuiper et al.); set-up: species or system human; details: quotient of RBA hERβ to hERα
Description: as §1

| Structure (SMILES) | Rat uterus ER(RBA) ([1]; Table 2) | Rat prost. ER(RBA) ([2]; Table 2) | prost. ER/uterus ER ([2]; Table 2) | Rat uterus ER(RBA) ([1]; Table 1, estradiol = 100) | Rat prost. ER(RBA) ([2]; Table 1, estradiol = 100) | also measured |
| --- | --- | --- | --- | --- | --- | --- |
| C=C[C@@]12CCc3cc(O)ccc3[C@H]1CC[C@@]1(C)[C@H]2C[C@@H](F)[C@@H]1O [Compound 1, 8β-Vinyl-estra-1,3,5(10)-16α-fluoro-3,17β-diol] | 1.7 | 167 | 98 |  |  |  |
| C=C[C@@]12CCc3cc(O)ccc3[C@H]1CC[C@@]1(C)[C@H]2CC[C@@H]1O [Compound 2, 8β-Vinyl-estra-1,3,5(10)-3,17β-diol] | 0.7 | 63 | 90 |  |  |  |
| C[C@]12CC[C@@H]3c4ccc(O)cc4CC[C@H]3[C@@H]1C[C@@H](O)[C@@H]2O [Estriol] |  |  |  |  |  | hERβ RBA* ([3]; relative binding affinity, estradiol = 100, cited from Kuiper et al.): 21 |
| C[C@]12CCC3c4ccc(O)cc4CCC3C1CC[C@@H]2O (stereo partly drawn) [Estradiol] |  |  |  | 100 | 100 | ED50, dose-dependent ovulation inhibition and increase in uterus weight [4]: 0.004 mg/kg of body weight |
| C[C@]12CC[C@H](O)CC1=CCC1C2CC[C@@]2(C)C1CC[C@@H]2O (stereo partly drawn) [5-Andro-stene-diol] |  |  |  | 0.1 | 5 | ERβ/ERα [5]: 3; prost. ER/uterus ER ([2]; Table 1): 50; hERβ RBA* [3]: 17 |

Reference: patent US20090029957A1, “8-BETA-SUBSTITUTED ESTRATRIENES AS SELECTIVELY ACTIVE ESTROGENS” (priority 2007, published 2009)
